Laboratory results: ChEMBL document CHEMBL2346618, “Synthesis and evaluation against hepatitis C virus of 7-deaza analogues of 2'-C-methyl-6-O-methyl guanosine nucleoside and L-Alanine ester phosphoramidates” (Bioorg Med Chem Lett, 2013)

Columns and labels:
[1] = (§1) Cytotoxicity against human HuH7 cells; assay type: cell-based, Huh-7; details: HuH7 cells
[2] = tested on: Hepatitis C virus; assay: Antiviral activity against Hepatitis C virus assessed as inhibition of viral replication; assay type: functional, organism-based, Hepacivirus hominis
[3] = Prodrug activation in trizma buffer assessed as formation of (2S)-2-((((2R,3R,4R,5R)-5-(2-amino-4-methoxy-7H-pyrrolo[2,3-d]pyrimidin-7-yl)-3,4-dihydroxy-4-methyltetrahydrofuran-2-yl)methoxy)(hydroxy)phosphorylamino)propanoic acid by NMR assay in presence of carboxypeptidase Y
[4] = tested on: Huh-7; assay: Prodrug activation in human HuH7 cell lysate assessed as formation of ((2R,3R,4R,5R)-5-(2-amino-4-methoxy-7H-pyrrolo[2,3-d]pyrimidin-7-yl)-3,4-dihydroxy-4-methyltetrahydrofuran-2-yl)methyl dihydrogen phosphate after 48 hrs by NMR assay; assay type: cell-based; details: huh-7, 48 h
[5] = tested on: Huh-7; assay: Prodrug activation in human HuH7 cell lysate assessed as formation of ((2R,3R,4R,5R)-5-(2-amino-4-methoxy-7H-pyrrolo[2,3-d]pyrimidin-7-yl)-3,4-dihydroxy-4-methyltetrahydrofuran-2-yl)methyl dihydrogen phosphate by NMR assay; assay type: cell-based
[6] = tested on: Huh-7; assay: as §1; assay type: cell-based; details: huh-7
[7] = Prodrug activation in phosphate buffer at pH 7.4 after 4 hrs by UV analysis in presence of calf adenosine deaminase; details: pH 7.4, 4 h

SMILES	CC50 [1] [µM]	EC50 ([2]; Hepatitis C virus) [µM]	also measured
COc1nc(N)nc2c1ncn2[C@@H]1O[C@H](COP(=O)(N[C@@H](C)C(=O)OCC(C)(C)C)Oc2cccc3ccccc23)[C@@H](O)[C@@]1(C)O (some centres undefined) [BMS-986094]	6	0.01	
COc1nc(N)nc2c1ccn2[C@@H]1O[C@H](COP(=O)(N[C@@H](C)C(=O)OCC(C)(C)C)Oc2cccc3ccccc23)[C@@H](O)[C@@]1(C)O (some centres undefined)	27	12.9	Drug metabolism [3]: Active; Drug metabolism [4]: Not Active
COc1nc(N)nc2c1ccn2[C@@H]1O[C@H](COP(=O)(O)O)[C@@H](O)[C@@]1(C)O			Drug metabolism [5]: Active
COc1nc(N)nc2c1ccn2[C@@H]1O[C@H](COP(=O)(N[C@@H](C)C(=O)OCc2ccccc2)Oc2cccc3ccccc23)[C@@H](O)[C@@]1(C)O (some centres undefined)	27	27.3	
COc1nc(N)nc2c1ncn2[C@@H]1O[C@H](CO)[C@@H](O)[C@@]1(C)O [BETA-2'-C-METHYL-6-O-METHYL GUANOSINE]	> 100	3	
COc1nc(N)nc2c1ccn2[C@@H]1O[C@H](COP(=O)(N[C@@H](C)C(=O)OC2CCCCC2)Oc2cccc3ccccc23)[C@@H](O)[C@@]1(C)O (single isomer, unassigned; slow eluting)	13	8.9	
COc1nc(N)nc2c1ccn2[C@@H]1O[C@H](COP(=O)(N[C@@H](C)C(=O)OC2CCCCC2)Oc2cccc3ccccc23)[C@@H](O)[C@@]1(C)O (single isomer, unassigned; fast eluting)			CC50 [6]: 18 µM; EC50 [2]: 13.3 µM
COc1nc(N)nc2c1ncn2[C@@H]1O[C@H](COP(=O)(N[C@@H](C)C(=O)OCc2ccccc2)Oc2cccc3ccccc23)[C@@H](O)[C@@]1(C)O (some centres undefined)	11	0.02	
COc1nc(N)nc2c1ccn2[C@@H]1O[C@H](CO)[C@@H](O)[C@@]1(C)O	> 100	> 100	Stability [7]: Stable
C[C@@]1(O)[C@H](O)[C@@H](CO)O[C@H]1n1ccc2c(N)ncnc21 [BETA-2'-C-METHYL-7-DEAZA-ADENOSINE]	> 100	0.25	
COc1nc(N)nc2c1ncn2[C@@H]1O[C@H](COP(=O)(N[C@@H](C)C(=O)OC2CCCCC2)Oc2cccc3ccccc23)[C@@H](O)[C@@]1(C)O (some centres undefined)	6	0.03	
